Measurements published in the kinase profiling compilation of Christmann-Franck et al. (2016).

Columns and labels:
Assay in all cases: radiometric filter-binding kinase assay, Kinaseprofiler
EPHA2 (human) = EPHA2 (human) (UniProt P29317); details: ATP 155 µM
MST1R (human) = MST1R (human) (UniProt Q04912); details: ATP 70 µM
FGR (human) = FGR (human) (UniProt P09769); details: ATP 45 µM
GRK7 (human) = GRK7 (human) (UniProt Q8WTQ7); details: ATP 15 µM
YES1 (human) = YES1 (human) (UniProt P07947); details: ATP 45 µM
CDK5 CDK5R1 p35 (human) = CDK5 CDK5R1 p35 (human) (UniProt Q00535+Q15078); details: ATP 15 µM
GRK5 (human) = GRK5 (human) (UniProt P34947); details: ATP 15 µM
MAP3K9 (human) = MAP3K9 (human) (UniProt P80192); details: ATP 45 µM
CLK3 (human) = CLK3 (human) (UniProt P49761); details: ATP 90 µM
TSSK1B (human) = TSSK1B (human) (UniProt Q9BXA7); details: ATP 15 µM
MAPK12 (human) = MAPK12 (human) (UniProt P53778); details: ATP 15 µM
PLK3 (human) = PLK3 (human) (UniProt Q9H4B4); details: ATP 70 µM
MINK1 (human) = MINK1 (human) (UniProt Q8N4C8); details: ATP 185 µM
IKBKB (human) = IKBKB (human) (UniProt O14920); details: ATP 10 µM
PTK2B (human) = PTK2B (human) (UniProt Q14289); details: ATP 90 µM
CDK5 CDK5R1 p25 (human) = CDK5 CDK5R1 p25 (human) (UniProt Q00535+Q15078); details: ATP 15 µM
TSSK2 (human) = TSSK2 (human) (UniProt Q96PF2); details: ATP 15 µM
SRPK2 (human) = SRPK2 (human) (UniProt P78362); details: ATP 10 µM
HIPK3 (human) = HIPK3 (human) (UniProt Q9H422); details: ATP 15 µM
MARK2 (human) = MARK2 (human) (UniProt Q7KZI7); details: ATP 15 µM
TYRO3 (human) = TYRO3 (human) (UniProt Q06418); details: ATP 45 µM
LIMK1 (human) = LIMK1 (human) (UniProt P53667); details: ATP 15 µM
PRKACA (human) = PRKACA (human) (UniProt P17612); details: ATP 10 µM
FGFR1 (human) = FGFR1 (human) (UniProt P11362); details: ATP 200 µM
IRAK1 (human) = IRAK1 (human) (UniProt P51617); details: ATP 45 µM
MAPK14 (human) = MAPK14 (human) (UniProt Q16539); details: ATP 90 µM
ABL1 (human) = ABL1 (human) (UniProt P00519); details: ATP 10 µM
PTK2 (human) = PTK2 (human) (UniProt Q05397); details: ATP 70 µM
FGFR3 (human) = FGFR3 (human) (UniProt P22607); details: ATP 15 µM
CAMK2G (human) = CAMK2G (human) (UniProt Q13555); details: ATP 10 µM
PKN2 (human) = PKN2 (human) (UniProt Q16513); details: ATP 15 µM
NEK11 (human) = NEK11 (human) (UniProt Q8NG66); details: ATP 200 µM
FGFR4 (human) = FGFR4 (human) (UniProt P22455); details: ATP 155 µM

TYRO3 (human), sequence (Q06418 whole entry, looked up): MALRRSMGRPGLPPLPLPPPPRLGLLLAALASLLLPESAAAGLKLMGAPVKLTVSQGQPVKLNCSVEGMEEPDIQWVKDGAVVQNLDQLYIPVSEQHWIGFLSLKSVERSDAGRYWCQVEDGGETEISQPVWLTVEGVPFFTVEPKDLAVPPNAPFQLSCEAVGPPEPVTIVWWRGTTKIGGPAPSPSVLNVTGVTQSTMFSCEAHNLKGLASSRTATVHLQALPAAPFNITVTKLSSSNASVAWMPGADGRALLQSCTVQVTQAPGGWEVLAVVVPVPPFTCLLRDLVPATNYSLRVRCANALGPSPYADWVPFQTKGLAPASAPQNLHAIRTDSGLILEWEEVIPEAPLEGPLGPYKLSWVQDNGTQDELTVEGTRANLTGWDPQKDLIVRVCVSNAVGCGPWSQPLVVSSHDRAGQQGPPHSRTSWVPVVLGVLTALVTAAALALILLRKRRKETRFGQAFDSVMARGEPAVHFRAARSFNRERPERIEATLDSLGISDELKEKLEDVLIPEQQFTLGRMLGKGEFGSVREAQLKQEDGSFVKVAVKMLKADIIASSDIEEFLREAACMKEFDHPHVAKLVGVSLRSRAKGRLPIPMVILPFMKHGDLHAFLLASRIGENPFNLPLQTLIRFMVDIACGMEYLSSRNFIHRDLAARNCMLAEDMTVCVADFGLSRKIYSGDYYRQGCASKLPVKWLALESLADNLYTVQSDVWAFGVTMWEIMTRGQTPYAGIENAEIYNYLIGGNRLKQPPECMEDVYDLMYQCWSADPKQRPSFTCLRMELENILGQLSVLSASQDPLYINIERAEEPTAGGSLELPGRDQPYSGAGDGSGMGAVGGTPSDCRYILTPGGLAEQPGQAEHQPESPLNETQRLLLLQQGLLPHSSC
EPHA2 (human), sequence (P29317 whole entry, looked up): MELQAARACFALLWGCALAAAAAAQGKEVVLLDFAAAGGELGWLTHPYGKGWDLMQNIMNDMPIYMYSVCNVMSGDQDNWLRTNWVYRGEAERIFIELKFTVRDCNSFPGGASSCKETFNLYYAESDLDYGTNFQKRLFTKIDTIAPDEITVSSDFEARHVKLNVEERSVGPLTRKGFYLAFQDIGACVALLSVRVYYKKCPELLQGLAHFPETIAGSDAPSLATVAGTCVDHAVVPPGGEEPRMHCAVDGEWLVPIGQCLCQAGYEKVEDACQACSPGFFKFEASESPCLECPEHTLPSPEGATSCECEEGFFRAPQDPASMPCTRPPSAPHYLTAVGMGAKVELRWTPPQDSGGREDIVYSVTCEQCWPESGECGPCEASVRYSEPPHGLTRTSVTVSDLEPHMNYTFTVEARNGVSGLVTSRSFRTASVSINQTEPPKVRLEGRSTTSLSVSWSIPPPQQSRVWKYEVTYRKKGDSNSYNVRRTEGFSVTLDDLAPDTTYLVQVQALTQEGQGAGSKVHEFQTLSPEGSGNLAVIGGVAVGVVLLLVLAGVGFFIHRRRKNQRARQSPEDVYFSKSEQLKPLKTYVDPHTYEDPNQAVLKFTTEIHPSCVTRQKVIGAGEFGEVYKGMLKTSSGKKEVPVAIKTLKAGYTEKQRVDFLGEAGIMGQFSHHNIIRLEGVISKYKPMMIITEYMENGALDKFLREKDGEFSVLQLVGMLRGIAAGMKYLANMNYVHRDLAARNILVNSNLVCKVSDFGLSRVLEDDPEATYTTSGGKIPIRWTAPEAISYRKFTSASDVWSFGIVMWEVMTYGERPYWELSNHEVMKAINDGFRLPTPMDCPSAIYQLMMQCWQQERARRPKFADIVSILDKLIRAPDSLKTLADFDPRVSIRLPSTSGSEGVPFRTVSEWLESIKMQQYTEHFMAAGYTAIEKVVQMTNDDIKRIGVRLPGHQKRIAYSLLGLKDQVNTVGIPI
GRK7 (human), sequence (Q8WTQ7 whole entry, looked up): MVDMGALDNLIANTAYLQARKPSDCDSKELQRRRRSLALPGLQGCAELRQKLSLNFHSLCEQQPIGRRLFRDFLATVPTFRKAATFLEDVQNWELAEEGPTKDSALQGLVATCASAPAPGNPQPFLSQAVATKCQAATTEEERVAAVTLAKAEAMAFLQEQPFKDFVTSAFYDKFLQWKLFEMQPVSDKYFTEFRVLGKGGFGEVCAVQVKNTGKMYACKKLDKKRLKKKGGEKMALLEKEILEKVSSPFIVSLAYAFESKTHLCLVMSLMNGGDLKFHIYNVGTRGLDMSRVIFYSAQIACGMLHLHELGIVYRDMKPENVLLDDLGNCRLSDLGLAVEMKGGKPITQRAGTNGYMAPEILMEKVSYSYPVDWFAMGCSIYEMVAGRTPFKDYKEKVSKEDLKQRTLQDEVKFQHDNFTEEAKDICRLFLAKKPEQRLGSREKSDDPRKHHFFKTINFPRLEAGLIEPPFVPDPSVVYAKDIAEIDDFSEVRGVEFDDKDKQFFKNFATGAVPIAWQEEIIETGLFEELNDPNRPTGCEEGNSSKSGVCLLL
CLK3 (human), sequence (P49761 whole entry, looked up): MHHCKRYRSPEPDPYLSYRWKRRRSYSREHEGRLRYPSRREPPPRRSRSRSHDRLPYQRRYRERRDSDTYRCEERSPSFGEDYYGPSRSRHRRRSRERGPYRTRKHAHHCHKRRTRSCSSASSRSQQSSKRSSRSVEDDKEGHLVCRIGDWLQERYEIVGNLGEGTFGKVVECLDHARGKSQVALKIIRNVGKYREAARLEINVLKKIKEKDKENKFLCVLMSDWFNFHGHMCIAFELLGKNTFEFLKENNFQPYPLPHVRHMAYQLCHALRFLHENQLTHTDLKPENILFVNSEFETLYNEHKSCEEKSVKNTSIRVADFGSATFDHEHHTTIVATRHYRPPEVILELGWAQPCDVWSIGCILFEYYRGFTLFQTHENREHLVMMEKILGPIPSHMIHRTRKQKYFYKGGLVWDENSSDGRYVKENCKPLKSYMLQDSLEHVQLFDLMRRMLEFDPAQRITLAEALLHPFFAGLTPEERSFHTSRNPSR
HIPK3 (human), sequence (Q9H422 whole entry, looked up): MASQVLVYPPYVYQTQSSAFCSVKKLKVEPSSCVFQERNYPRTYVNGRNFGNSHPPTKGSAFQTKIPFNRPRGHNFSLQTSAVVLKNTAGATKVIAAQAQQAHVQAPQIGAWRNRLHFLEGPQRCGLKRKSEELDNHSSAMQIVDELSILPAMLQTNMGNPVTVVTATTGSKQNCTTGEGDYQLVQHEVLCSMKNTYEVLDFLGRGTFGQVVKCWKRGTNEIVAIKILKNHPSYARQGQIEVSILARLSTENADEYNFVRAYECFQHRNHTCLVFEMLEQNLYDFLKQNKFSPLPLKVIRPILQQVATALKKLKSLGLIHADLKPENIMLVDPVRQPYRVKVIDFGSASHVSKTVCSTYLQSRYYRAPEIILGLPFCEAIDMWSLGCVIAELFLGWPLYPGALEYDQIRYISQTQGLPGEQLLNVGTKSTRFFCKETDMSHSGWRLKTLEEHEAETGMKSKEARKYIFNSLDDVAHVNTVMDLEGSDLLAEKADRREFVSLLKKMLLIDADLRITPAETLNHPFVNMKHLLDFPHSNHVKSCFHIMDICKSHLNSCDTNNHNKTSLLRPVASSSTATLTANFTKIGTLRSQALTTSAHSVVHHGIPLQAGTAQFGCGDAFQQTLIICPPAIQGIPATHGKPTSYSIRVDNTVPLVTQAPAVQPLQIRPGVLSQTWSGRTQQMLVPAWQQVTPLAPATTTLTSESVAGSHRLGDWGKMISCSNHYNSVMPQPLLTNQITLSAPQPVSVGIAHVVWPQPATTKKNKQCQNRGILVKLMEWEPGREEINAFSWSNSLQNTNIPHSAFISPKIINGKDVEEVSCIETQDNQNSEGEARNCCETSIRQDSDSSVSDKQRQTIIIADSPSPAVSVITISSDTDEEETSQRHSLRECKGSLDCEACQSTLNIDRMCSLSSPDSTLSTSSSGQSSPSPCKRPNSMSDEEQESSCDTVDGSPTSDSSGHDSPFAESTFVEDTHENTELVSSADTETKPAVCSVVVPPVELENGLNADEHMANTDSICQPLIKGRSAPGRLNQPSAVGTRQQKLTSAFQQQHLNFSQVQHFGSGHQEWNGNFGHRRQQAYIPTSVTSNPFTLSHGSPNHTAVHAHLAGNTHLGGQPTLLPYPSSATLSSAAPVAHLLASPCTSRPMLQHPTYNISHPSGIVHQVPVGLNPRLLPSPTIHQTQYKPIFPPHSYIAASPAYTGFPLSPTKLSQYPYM
LIMK1 (human), sequence (P53667 whole entry, looked up): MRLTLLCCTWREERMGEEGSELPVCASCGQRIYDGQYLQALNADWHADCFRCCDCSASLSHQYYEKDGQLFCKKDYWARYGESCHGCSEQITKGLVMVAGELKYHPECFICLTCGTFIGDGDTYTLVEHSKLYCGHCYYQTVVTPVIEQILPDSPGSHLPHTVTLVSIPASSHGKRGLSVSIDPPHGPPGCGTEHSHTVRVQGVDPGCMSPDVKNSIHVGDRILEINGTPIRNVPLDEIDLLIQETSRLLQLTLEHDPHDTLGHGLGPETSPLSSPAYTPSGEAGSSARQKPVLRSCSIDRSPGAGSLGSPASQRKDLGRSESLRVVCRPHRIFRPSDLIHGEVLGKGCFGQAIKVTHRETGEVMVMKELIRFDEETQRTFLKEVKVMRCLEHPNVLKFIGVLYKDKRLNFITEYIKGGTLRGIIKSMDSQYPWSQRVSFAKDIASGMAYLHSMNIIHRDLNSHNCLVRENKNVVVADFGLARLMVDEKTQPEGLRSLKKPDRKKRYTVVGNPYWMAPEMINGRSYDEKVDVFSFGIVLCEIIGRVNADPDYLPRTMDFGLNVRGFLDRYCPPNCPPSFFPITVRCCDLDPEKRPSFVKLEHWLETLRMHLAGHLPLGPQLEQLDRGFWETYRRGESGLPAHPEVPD

Structure (SMILES): O=C1Nc2ccccc2/C1=C1\Nc2ccccc2\C1=N/O
- residual activity (EPHA2 (human); compound 1.0 µM): 61%
- residual activity (EPHA2 (human); compound 10.0 µM): 16%
- residual activity (MST1R (human); compound 1.0 µM): 86%
- residual activity (MST1R (human); compound 10.0 µM): 71%
- residual activity (FGR (human); compound 1.0 µM): 8%
- residual activity (FGR (human); compound 10.0 µM): 1%
- residual activity (GRK7 (human); compound 1.0 µM): 73%
- residual activity (GRK7 (human); compound 10.0 µM): 18%
- residual activity (YES1 (human); compound 1.0 µM): 17%
- residual activity (YES1 (human); compound 10.0 µM): 0%
- residual activity (CDK5 CDK5R1 p35 (human); compound 1.0 µM): 5%
- residual activity (CDK5 CDK5R1 p35 (human); compound 10.0 µM): 1%
- residual activity (GRK5 (human); compound 1.0 µM): 92%
- residual activity (GRK5 (human); compound 10.0 µM): 58%
- residual activity (MAP3K9 (human); compound 1.0 µM): 6%
- residual activity (MAP3K9 (human); compound 10.0 µM): 1%
- residual activity (CLK3 (human); compound 1.0 µM): 79%
- residual activity (CLK3 (human); compound 10.0 µM): 54%
- residual activity (TSSK1B (human); compound 1.0 µM): 78%
- residual activity (TSSK1B (human); compound 10.0 µM): 53%
- residual activity (MAPK12 (human); compound 1.0 µM): 95%
- residual activity (MAPK12 (human); compound 10.0 µM): 84%
- residual activity (PLK3 (human); compound 1.0 µM): 96%
- residual activity (PLK3 (human); compound 10.0 µM): 91%
- residual activity (MINK1 (human); compound 1.0 µM): 54%
- residual activity (MINK1 (human); compound 10.0 µM): 10%
- residual activity (IKBKB (human); compound 1.0 µM): 87%
- residual activity (IKBKB (human); compound 10.0 µM): 67%
- residual activity (PTK2B (human); compound 1.0 µM): 14%
- residual activity (PTK2B (human); compound 10.0 µM): 2%
- residual activity (CDK5 CDK5R1 p25 (human); compound 1.0 µM): 3%
- residual activity (CDK5 CDK5R1 p25 (human); compound 10.0 µM): 2%
- residual activity (TSSK2 (human); compound 1.0 µM): 95%
- residual activity (TSSK2 (human); compound 10.0 µM): 78%
- residual activity (SRPK2 (human); compound 1.0 µM): 96%
- residual activity (SRPK2 (human); compound 10.0 µM): 67%
- residual activity (HIPK3 (human); compound 1.0 µM): 88%
- residual activity (HIPK3 (human); compound 10.0 µM): 19%
- residual activity (MARK2 (human); compound 1.0 µM): 48%
- residual activity (MARK2 (human); compound 10.0 µM): 14%
- residual activity (TYRO3 (human); compound 1.0 µM): 62%
- residual activity (TYRO3 (human); compound 10.0 µM): 15%
- residual activity (LIMK1 (human); compound 1.0 µM): 61%
- residual activity (LIMK1 (human); compound 10.0 µM): 21%
- residual activity (PRKACA (human); compound 1.0 µM): 90%
- residual activity (PRKACA (human); compound 10.0 µM): 54%
- residual activity (FGFR1 (human); compound 1.0 µM): 3%
- residual activity (FGFR1 (human); compound 10.0 µM): -1%
- residual activity (IRAK1 (human); compound 1.0 µM): 60%
- residual activity (IRAK1 (human); compound 10.0 µM): 11%
- residual activity (MAPK14 (human); compound 1.0 µM): 94%
- residual activity (MAPK14 (human); compound 10.0 µM): 78%
- residual activity (ABL1 (human); compound 1.0 µM): 49%
- residual activity (ABL1 (human); compound 10.0 µM): 16%
- residual activity (PTK2 (human); compound 1.0 µM): 39%
- residual activity (PTK2 (human); compound 10.0 µM): 2%
- residual activity (FGFR3 (human); compound 1.0 µM): 20%
- residual activity (FGFR3 (human); compound 10.0 µM): 2%
- residual activity (CAMK2G (human); compound 1.0 µM): 12%
- residual activity (CAMK2G (human); compound 10.0 µM): 1%
- residual activity (PKN2 (human); compound 1.0 µM): 91%
- residual activity (PKN2 (human); compound 10.0 µM): 48%
- residual activity (NEK11 (human); compound 1.0 µM): 70%
- residual activity (NEK11 (human); compound 10.0 µM): 18%
- residual activity (FGFR4 (human); compound 1.0 µM): 100%
- residual activity (FGFR4 (human); compound 10.0 µM): 45%
